Assay results: US20020099070A1, “Dihydronaphthyridine potassium channel openers” (priority 2000, published 2002)

Assays:
[1] = tested on: Landrace pig bladder strips; test: Functional potassium channel opening activity in isolated bladder strips (field-stimulated twitch); conditions: for Index: ED50 for P1075 divided by ED50 for test agonist, averaged over tissues; for EC50: Sus scrofa, read-out: pD2 (converted); for EC50 / pD2: negative logarithm of ED50; for Efficacy (% P1075): maximal efficacy relative to P1075, field stimulation 0.05 Hz, 0.5 ms, 20 volts
Protocol: Compounds were evaluated for functional potassium channel opening activity using tissue strips obtained from Landrace pig bladders.
Landrace pig bladders were obtained from female Landrace pigs of 9-30 kg. Landrace pigs were euthanized with an intraperitoneal injection of pentobarbital solution, Somlethal® , J. A. Webster Inc., Sterling, Mass. The entire bladder was removed and immediately placed into Krebs Ringer bicarbonate solution (composition, mM: NaCl, 120; NaHCO3, 20; dextrose, 11; KCl, 4.7; CaCl2, 2.5; MgSO4, 1.5; KH2PO4, 1.2; K2EDTA, 0.01, equilibrated with 5% CO2/95% O2 pH 7.4 at 37° C.). Propranolol (0.004 mM) was included in all of the assays to block β-adrenoceptors. The trigonal and dome portions were discarded. Strips 3-5 millimeters (mm) wide and 20 mm long were prepared from the remaining tissue cut in a circular fashion. The mucosal layer was removed. One end was fixed to a stationary glass rod and the other to a Grass FT03 transducer at a basal preload of 1.0 g. Two parallel platinum electrodes were included in the stationary glass rod to provide field stimulation of 0.05 Hz, 0.5 milli-seconds at 20 volts. This low frequency stimulation produced a stable twitch response of 100-500 centigrams. Tissues were allowed to equilibrate for at least 60 minutes and primed with 80 mM KCl. A control concentration response curve (cumulative) was generated for each tissue using the potassium channel opener P1075 as the control agonist. […] After a 60 minute rinsing period, a concentration response curve (cumulative) was generated for the test agonist in the same fashion as that used for the control agonist P1075. The maximal efficacy of each compounds (expressed as % relative to P1075) is reported. The amount of agent necessary to cause 50% of the agent's maximal response (ED50) was calculated using “ALLFIT” (DeLean et al., Am. J. Physiol., 235, E97 (1980)), and agonist potencies were expressed as pD2 (the negative logarithm). Agonist potencies were also expressed as an index relative to P1075. The index was calculated by dividing the ED50 for P1075 by the ED50 for the test agonist in a give tissue. Each tissue was used for only one test agonist, and the indices obtained from each tissue were averaged to provide an average index of potency.

[2] = tested on: primary cultured guinea-pig urinary bladder (GPB) cells; test: Membrane hyperpolarization (MHP) assay, DiBAC(4)3 / FLIPR; assay type: cell-based; conditions: for Emax / Maximal Response (% P1075): maximal steady-state hyperpolarization, normalized to 10 μM P1075 = 100%; for Emax: read-out: Maximal Response (% P1075); for EC50: membrane hyperpolarization in GPB cells
Protocol: Compounds were evaluated for potassium channel opening activity using primary cultured guinea-pig urinary bladder (GPB) cells.
For the preparation of urinary bladder smooth muscle cells, urinary bladders were removed from male guinea-pigs (Hartley, Charles River, Wilmington, Mass.) weighing 300-400 g and placed in ice-cold Ca^2+-free Krebs solution (Composition, mM: KCl, 2.7; KH2PO4, 1.5; NaCl, 75; Na2HPO4, 9.6; Na2HPO4.7H2O, 8; MgSO4, 2; glucose, 5; HEPES, 10; pH 7.4). Cells were isolated by enzymatic dissociation as previously described with minor modifications in Klockner, U. and Isenberg, G., Pflugers Arch. 1985, 405, 329-339, hereby incorporated by reference. The bladder was cut into small sections and incubated in 5 mL of the Kreb's solution containing 1 mg/mL collagenase (Sigma, St. Louis, Mo.) and 0.2 mg/mL pronase (Calbiochem, La Jolla, Calif.) with continuous stirring in a cell incubator for 30 minutes. The mixture was then centrifuged at 1300×g for 5 minutes, and the pellet resuspended in Dulbecco's PBS (GIBCO, Gaithersburg, Md.) and recentrifuged to remove residual enzyme. The cell pellet was resuspended in 5 mL growth media (composition: Dulbecco's modified Eagle's medium supplemented with 10% fetal bovine serum, 100 units/mL penicillin, 100 units/mL streptomycin and […] amphotericin B) and further dissociated by pipetting the suspension through a flame-polished Pasteur pipette and passing it through a polypropylene mesh membrane (Spectrum, Houston, Tex.). The cell density was adjusted to 100,000 cells/mL by resuspension in growth media. Cells were plated in clear-bottomed black 96-well plates (Packard) for membrane potential studies at a density of 20,000 cells/well and maintained in a cell incubator with 90% air: 10% CO2 until confluent. Cells were confirmed to be of smooth muscle type by cytoskeletal staining using a monoclonal mouse anti human-α-smooth muscle actin (Biomeda, Foster City, Calif.).
Functional activity at potassium channels was measured by evaluating changes in membrane potential using the bis-oxonol dye DiBAC(4)3 (Molecular Probes) in a 96-well cell-based kinetic assay system, Fluorescent Imaging Plate Reader (FLIPR) (K. S. Schroeder et al., J. Biomed. Screen., v. 1 pp. 75-81 (1996)), hereby incorporated by reference. DiBAC(4)3 is an anionic potentiometric probe which partitions between cells and extracellular solution in a membrane potential-dependent manner. With increasing membrane potential (for example, K^+ depolarization), the probe fuither partitions into the cell; this is measured as an increase in fluorescence due to dye interaction with intracellular lipids and proteins. Conversely, decreasing membrane potential (hyperpolarization by potassium channel openers) evokes a decrease in fluorescence.
Confluent guinea-pig urinary bladder cells cultured in black clear-bottomed 96-well plates were rinsed twice with […] assay buffer (composition, mM: HEPES, 20; NaCl, 120; KCl, 2; CaCl2, 2; MgCl2, 1; glucose, 5; pH 7.4 at 25° C.) containing 5 μM DiBAC(4)3 and incubated with […] of the buffer in a cell incubator for 30 minutes at 37° C. to ensure dye distribution across the membrane. After recording the baseline fluorescence for 5 minutes, the reference or test compounds, prepared at 10 times the concentration in the assay buffer, were added directly to the wells. Changes in fluorescence were monitored for an additional 25 minutes. Hyperpolarization responses were corrected for any background noise and were normalized to the response observed with 10 μM of the reference compound P1075, N″-cyano-N-(tert-pentyl)-N′-(3-pyridinyl)guanidine, which was assigned as 100%. P1075 is a potent opener of smooth muscle KATP channels (Quast et al., Mol. Pharmacol., v. 43 pp. 474-481 (1993)) and was prepared using the procedures described in (Manley, J. Med. Chem. (1992) 35, 2327-2340), hereby incorporated by reference. […]

Q: Which Index [1] does the source give for CC1=C(C#N)C(c2ccc(F)c(Br)c2)C2=C(CCNC2=O)N1 (centres unmarked) [Example 2, 4-(3-bromo-4-fluorophenyl)-3-cyano-2-methyl-4,6,7,8-tetrahydro[1,6]naphthyridin-5(1H)-one] here?
A: 0.2653

Q: What about the EC50 [1] of the same molecule?
A: 692 nM

Q: And the “Efficacy (% P1075)” value [1]?
A: 60 % P1075

Q: What about the Emax ([2]; Cavia porcellus) of the same molecule?
A: 122%

Q: And the EC50 ([2]; Cavia porcellus)?
A: 100 nM

Q: Which Index [1] does the source give for CC1=C(C#N)C(c2ccc(F)c(Br)c2)c2c(cc[nH]c2=O)N1 (centres unmarked) [Example 5, 4-(3-bromo-4-fluorophenyl)-3-cyano-2-methyl-4,6-dihydro[1,6]naphthyridin-5(1H)-one] here?
A: 1.2740

Q: And the “Efficacy (% P1075)” value [1]?
A: 98 % P1075

Q: What about the pD2 [1] of the same molecule?
A: 6.85

Q: And the Emax ([2]; Cavia porcellus)?
A: 114%

Q: And the EC50 [2]?
A: 17 nM

Q: For CC1=C(C#N)C(c2ccc(F)c(Br)c2)c2c(cc[nH]c2=O)N1 (centres unmarked) [Example 6, 4-(3-bromo-4-fluorophenyl)-3-cyano-2-methyl-4,6-dihydro[1,6]naphthyridin-5(1H)-one], which Index [1] is on record?
A: 0.0318

Q: And the “Efficacy (% P1075)” value [1]?
A: 67 % P1075

Q: What about the pD2 [1] of the same molecule?
A: 4.89

Q: What about the “Maximal Response (% P1075)” value [2] of the same molecule?
A: 102 % P1075

Q: What about the EC50 [2] of the same molecule?
A: 1500 nM

Q: Which results are given for CC1=C(C#N)C(c2ccc(F)c(Br)c2)c2c(ccn(C)c2=O)N1 (centres unmarked) [Example 7, 4-(3-bromo-4-fluorophenyl)-3-cyano-2,6-dimethyl-4,6-dihydro[1,6]naphthyridin-5(1H)-one]?
A: Index [1]: 2.826; EC50 [1]: 10.2 nM; Efficacy (% P1075) [1]: 100 % P1075

Q: With CC1=C(C#N)C(c2ccc(F)c(C(F)(F)F)c2)C2=C(CCOC2=O)N1 (centres unmarked) [Example 26, 4-[4-fluoro-3-(trifluoromethyl)phenyl]-3-cyano-2-methyl-1,4,7,8-tetrahydro-5H-pyrano[4,3-b]pyridin-5-one] as the molecule, how does the Index [1] read?
A: 0.6715

Q: And the EC50 [1]?
A: 275 nM

Q: And the “Efficacy (% P1075)” value [1]?
A: 98 % P1075

Q: Which results are given for CC1=C(C#N)C(c2ccc(F)c(Br)c2)c2c(ccnc2Cl)N1 (centres unmarked) [Example 33, 4-(3-bromo-4-fluorophenyl)-5-chloro-3-cyano-2-methyl-1,4-dihydro[1,6]naphthyridine]?
A: Index [1]: 0.0353; Efficacy (% P1075) [1]: 61 % P1075; pD2 [1]: 5.31; Maximal Response (% P1075) [2]: 65 % P1075; EC50 [2]: 28 nM

Q: Which results are given for CC1=C(C#N)C(c2ccc(F)c(Br)c2)c2c(ccnc2Cl)N1 (centres unmarked) [Example 34, 4-(3-bromo-4-fluorophenyl)-5-chloro-3-cyano-2-methyl-1,4-dihydro[1,6]naphthyridine]?
A: Index [1]: 0.2089; Efficacy (% P1075) [1]: 85 % P1075; pD2 [1]: 6.14; Maximal Response (% P1075) [2]: 90 % P1075; EC50 [2]: 6 nM

Q: With CC1=C(C#N)C(c2ccc(F)c(Br)c2)c2c(cc[nH]c2=S)N1 (centres unmarked) [Example 35, 4-(3-bromo-4-fluorophenyl)-3-cyano-2-methyl-4,6-dihydro[1,6]naphthyridine-5(1H)-thione] as the molecule, how does the Index [1] read?
A: 0.3068

Q: And the EC50 [1]?
A: 794 nM

Q: What about the “Efficacy (% P1075)” value [1] of the same molecule?
A: 77 % P1075

Q: How did the Index [1] turn out when COc1nccc2c1C(c1ccc(F)c(Br)c1)C(C#N)=C(C)N2 (centres unmarked) [Example 38, 4-(3-bromo-4-fluorophenyl)-3-cyano-2-methyl-5-methoxy-1,4-dihydro[1,6]naphthyridine] was run?
A: 0.2488

Q: And the EC50 [1]?
A: 1000 nM

Q: And the “Efficacy (% P1075)” value [1]?
A: 78 % P1075

Q: Which “effect on stimulated twitch / contractions of the bladder” value ([1]; P1075: concentration range 10^−9 to 10^−5 M, cumulative) does the source give for CCC(C)(C)NC(=NC#N)Nc1cccnc1 [Example P1075, N″-cyano-N-(tert-pentyl)-N′-(3-pyridinyl)guanidine, reference compound] here?
A: completely eliminated the stimulated twitch
